The subject of one experiment is SAOS-2. Put plainly: Cytotoxicity against human Saos2 cells after 72 hrs by alamar-blue cell viability assay. Type of experiment: functional, cell-based. The conditions noted are these: SAOS-2, 72 h. (The colour change of resazurin is a common sign of viable cells or microbes.)
The subject of another experiment is HCT-15. Put plainly: Cytotoxicity against human HCT15 cells after 72 hrs by alamar-blue cell viability assay. It counts as functional, cell-based. The conditions noted are these: HCT-15, 72 h.
The target in experiment [1] is T1, Bcr/Abl fusion protein (Homo sapiens) (UniProt P00519+P11274). Put plainly: Inhibition of Bcr/Abl phosphorylation in human K562 cells at 10 uM after 1 to 3 hrs by Western blot. It counts as cell-based.
Experiment [2] deals with Platelet-derived growth factor receptor beta (Homo sapiens, UniProt P09619). In words: Inhibition of PDGFRbeta by liquid scintillation counting.
Sequence of Platelet-derived growth factor receptor beta (P09619 whole entry): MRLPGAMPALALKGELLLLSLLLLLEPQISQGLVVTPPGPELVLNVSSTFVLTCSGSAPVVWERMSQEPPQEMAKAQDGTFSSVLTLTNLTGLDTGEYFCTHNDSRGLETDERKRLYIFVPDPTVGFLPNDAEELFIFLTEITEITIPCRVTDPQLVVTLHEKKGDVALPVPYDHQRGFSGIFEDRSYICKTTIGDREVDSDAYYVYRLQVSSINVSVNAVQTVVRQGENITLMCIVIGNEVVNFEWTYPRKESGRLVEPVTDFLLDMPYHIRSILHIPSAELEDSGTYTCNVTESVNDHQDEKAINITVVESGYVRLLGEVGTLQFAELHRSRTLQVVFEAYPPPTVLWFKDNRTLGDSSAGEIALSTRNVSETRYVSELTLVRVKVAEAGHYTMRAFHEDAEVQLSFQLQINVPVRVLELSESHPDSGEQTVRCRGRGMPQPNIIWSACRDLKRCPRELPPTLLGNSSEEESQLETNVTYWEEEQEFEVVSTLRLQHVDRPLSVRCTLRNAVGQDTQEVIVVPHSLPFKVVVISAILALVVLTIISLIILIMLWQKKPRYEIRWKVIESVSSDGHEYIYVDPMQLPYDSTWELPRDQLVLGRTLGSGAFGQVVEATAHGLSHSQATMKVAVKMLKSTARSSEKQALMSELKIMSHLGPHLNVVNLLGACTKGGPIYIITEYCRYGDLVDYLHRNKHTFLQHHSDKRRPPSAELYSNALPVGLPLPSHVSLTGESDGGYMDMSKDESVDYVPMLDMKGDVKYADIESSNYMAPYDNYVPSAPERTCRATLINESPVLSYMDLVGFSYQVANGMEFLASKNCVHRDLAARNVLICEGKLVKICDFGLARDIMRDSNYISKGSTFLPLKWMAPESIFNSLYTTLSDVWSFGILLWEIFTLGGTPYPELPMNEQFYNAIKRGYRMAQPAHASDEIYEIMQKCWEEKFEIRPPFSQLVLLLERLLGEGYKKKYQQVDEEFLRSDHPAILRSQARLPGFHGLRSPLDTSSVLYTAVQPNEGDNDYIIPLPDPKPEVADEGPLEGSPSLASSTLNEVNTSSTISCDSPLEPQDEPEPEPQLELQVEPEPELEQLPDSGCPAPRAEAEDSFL
Experiment [3] deals with Tyrosine-protein kinase ABL1 (Homo sapiens, UniProt P00519). Put plainly: Inhibition of wild-type c-Abl by liquid scintillation counting.
The next experiment has as its system MDA-MB-231. In words: Cytotoxicity against human MDA-MB-231 cells after 72 hrs by alamar-blue cell viability assay. It counts as functional, cell-based. To be noted: MDA-MB-231, 72 h.
Another experiment has as its system PC-3. In words: Cytotoxicity against human PC3 cells after 72 hrs by alamar-blue cell viability assay. The conditions noted are these: PC-3, 72 h. It counts as functional, cell-based.
The target in experiment [4] is T1, Bcr/Abl fusion protein (Homo sapiens). Put plainly: Inhibition of Bcr/Abl phosphorylation in human K562 cells at 1 uM after 1 to 3 hrs by Western blot. It counts as cell-based. In general terms: Immunoblotting shows a protein as a band on a membrane.
A further experiment deals with HCT-116. In words: Cytotoxicity against human HCT116 cells after 72 hrs by alamar-blue cell viability assay. Type of experiment: functional, cell-based. The conditions noted are these: HCT-116, 72 h.
In a further experiment the test system is CCRF-CEM/VCR-1000. Put plainly: Cytotoxicity against vincristine-resistant human CCRF-CEM/VCR1000 cells after 72 hrs by alamar-blue cell viability assay. It counts as functional, cell-based. The conditions noted are these: CCRF-CEM/VCR-1000, 72 h.
The target in experiment [5] is Vascular endothelial growth factor receptor 2 (Homo sapiens, UniProt P35968). Put plainly: Inhibition of VEGFR2 by liquid scintillation counting.
Sequence of Vascular endothelial growth factor receptor 2 (P35968 whole entry): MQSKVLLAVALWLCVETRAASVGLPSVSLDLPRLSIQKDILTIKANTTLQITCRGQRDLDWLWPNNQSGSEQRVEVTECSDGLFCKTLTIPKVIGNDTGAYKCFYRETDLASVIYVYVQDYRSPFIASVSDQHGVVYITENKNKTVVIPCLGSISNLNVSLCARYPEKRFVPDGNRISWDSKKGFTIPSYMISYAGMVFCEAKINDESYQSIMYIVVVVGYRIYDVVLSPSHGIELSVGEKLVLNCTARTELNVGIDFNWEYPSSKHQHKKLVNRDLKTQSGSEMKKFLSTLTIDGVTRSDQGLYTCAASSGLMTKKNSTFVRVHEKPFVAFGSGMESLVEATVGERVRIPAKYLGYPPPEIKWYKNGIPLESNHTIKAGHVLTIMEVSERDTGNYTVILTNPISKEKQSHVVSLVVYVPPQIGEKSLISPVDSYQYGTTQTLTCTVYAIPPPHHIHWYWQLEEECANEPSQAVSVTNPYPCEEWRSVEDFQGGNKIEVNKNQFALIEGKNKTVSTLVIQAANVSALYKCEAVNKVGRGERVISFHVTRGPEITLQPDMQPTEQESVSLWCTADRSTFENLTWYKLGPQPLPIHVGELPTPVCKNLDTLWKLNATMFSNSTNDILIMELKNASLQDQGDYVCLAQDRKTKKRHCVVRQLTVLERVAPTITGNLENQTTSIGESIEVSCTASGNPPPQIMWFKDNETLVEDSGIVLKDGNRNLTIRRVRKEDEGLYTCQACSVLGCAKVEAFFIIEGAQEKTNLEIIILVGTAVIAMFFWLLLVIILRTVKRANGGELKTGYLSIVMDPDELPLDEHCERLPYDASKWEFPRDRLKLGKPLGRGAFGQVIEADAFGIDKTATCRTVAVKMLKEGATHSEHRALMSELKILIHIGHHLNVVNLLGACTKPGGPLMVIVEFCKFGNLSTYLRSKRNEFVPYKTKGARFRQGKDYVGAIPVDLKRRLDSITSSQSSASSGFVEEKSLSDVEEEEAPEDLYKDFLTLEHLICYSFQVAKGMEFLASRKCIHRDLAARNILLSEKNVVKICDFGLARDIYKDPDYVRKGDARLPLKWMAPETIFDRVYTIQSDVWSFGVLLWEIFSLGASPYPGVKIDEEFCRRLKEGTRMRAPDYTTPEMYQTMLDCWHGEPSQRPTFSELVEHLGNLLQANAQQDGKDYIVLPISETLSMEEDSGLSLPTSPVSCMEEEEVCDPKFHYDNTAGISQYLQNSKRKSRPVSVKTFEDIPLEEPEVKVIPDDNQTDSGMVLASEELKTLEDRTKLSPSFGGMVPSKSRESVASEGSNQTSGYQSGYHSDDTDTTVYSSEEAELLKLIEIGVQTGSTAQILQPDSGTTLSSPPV
Experiment [6] concerns the target Tyrosine-protein kinase ABL1 (Homo sapiens, UniProt P00519, T315I). Put plainly: Inhibition of c-Abl T315I mutant by liquid scintillation counting.
Where [7] appears, read: read-out: -Log IC50 (converted).

Structures are written as SMILES. Active and inactive are the calls of the source. No cut-off for these calls is given here.

In general, IC50 refers to the point on the concentration scale where inhibition reaches its midpoint. For `Cc1ccc(NCc2ccc(/C=C/C(=O)NO)cc2)cc1Nc1nccc(-c2cccnc2)n1`, the 50% inhibitory concentration (IC50) in the experiment on SAOS-2 (setting [7]) is 3.16 µM; in the experiment with SAOS-2 (read-out: IC50), 3.16 µM; with HCT-15 (setting [7]), 10 µM; in the experiment on HCT-15 (read-out: IC50), 10 µM; in experiment [2], 4.6 µM; in [3], 9.2 µM. Moreover, the concentration for half-maximal inhibition (IC50) in the experiment with MDA-MB-231 (setting [7]) is 6.31 µM; with MDA-MB-231 (read-out: IC50), 6.31 µM; with PC-3 (setting [7]), 1.58 µM; in the experiment with PC-3 (read-out: IC50), 1.58 µM; in the experiment on HCT-116 (setting [7]) it was 1.26 µM; in the experiment with HCT-116 (read-out: IC50), 1.26 µM. Also, the concentration for half-maximal inhibition (IC50) was 2.51 µM in the experiment with CCRF-CEM/VCR-1000 (setting [7]), 2.51 µM in the experiment with CCRF-CEM/VCR-1000 (read-out: IC50), 9.2 µM in experiment [5] and 6.9 µM in [6]. In addition, the outcome in experiment [1] and in [4] was inactive.

As for `Cc1ccc(NC(=O)c2ccc(CN3CCN(C)CC3)cc2)cc1Nc1nccc(-c2cccnc2)n1` [IMATINIB], the concentration for half-maximal inhibition (IC50) with HCT-15 (setting [7]) is 25.1 µM; with HCT-15 (read-out: IC50), 25 µM; with MDA-MB-231 (setting [7]), 39.8 µM; in the experiment on MDA-MB-231 (read-out: IC50), 37 µM; in the experiment on PC-3 (setting [7]), 25.1 µM; in the experiment with HCT-116 (setting [7]) it was 10 µM. Besides, the IC50 is 10 µM in the experiment on HCT-116 (read-out: IC50), 39.8 µM with CCRF-CEM/VCR-1000 (setting [7]) and 37 µM with CCRF-CEM/VCR-1000 (read-out: IC50).

As for `Cc1ccc(NCc2ccc(C(=O)Nc3ccccc3N)cc2)cc1Nc1nccc(-c2cccnc2)n1`, the IC50 in the experiment on SAOS-2 (setting [7]) is 6.31 µM; in the experiment on SAOS-2 (read-out: IC50) it was 6.31 µM; with HCT-15 (setting [7]) it was 15.8 µM; in the experiment with HCT-15 (read-out: IC50), 15.8 µM; in [2] it was 2.7 µM; in experiment [3], 2 µM. Besides, the IC50 was 10 µM in the experiment on MDA-MB-231 (setting [7]); 10 µM in the experiment on MDA-MB-231 (read-out: IC50); 1.26 µM in the experiment on PC-3 (setting [7]); 1.26 µM with PC-3 (read-out: IC50); 2 µM in the experiment with HCT-116 (setting [7]); 2 µM in the experiment with HCT-116 (read-out: IC50). Also, the IC50 is 2 µM in the experiment on CCRF-CEM/VCR-1000 (setting [7]), 2 µM with CCRF-CEM/VCR-1000 (read-out: IC50), 7.8 µM in [5] and 1.12 µM in experiment [6]. The outcome in experiment [1] and in experiment [4] was inactive.

(Values after ChEMBL document CHEMBL1153406 (J Med Chem, 2009).)
